{
  "source": "patent US9487819B2",
  "about": "“Quantitative genetically encoded optical reporter construct” (Cornell University, priority 2009, dated 2016)",
  "molecules": {"B1": {"name": "Photonus pyralis luciferase: 62 kD firefly luciferase, SEQ ID NO: 1 (protein, listed as Photonis pyralis)", "chain": "MEDAKNIKKGPAPFYPLEDGTAGEQLHKAMKRYALVPGTIAFTDAHIEVDITYAEYFEMSVRLAEAMKRYGLNTNHRIVVCSENSLQFFMPVLGALFIGVAVAPANDIYNERELLNSMGISQPTVVFVSKKGLQKILNVQKKLPIIQKIIIMDSKTDYQGFQSMYTFVTSHLPPGFNEYDFVPESFDRDKTIALIMNSSGSTGLPKGVALPHRTACVRFSHARDPIFGNQIIPDTAILSVVPFHHGFGMFTTLGYLICGFRVVLMYRFEEELFLRSLQDYKIQSALLVPTLFSFFAKSTLIDKYDLSNLHEIASGGAPLSKEVGEAVAKRFHLPGIRQGYGLTETTSAILITPEGDDKPGAVGKVVPFFEAKVVDLDTGKTLGVNQRGELCVRGPMIMSGYVNNPEATNALIDKDGWLHSGDIAYWDEDEHFFIVDRLKSLIKYKGYQVAPAELESILLQHPNIFDAGVAGLPDDDAGELPAAVVVLEHGKTMTEKEIVDYVASQVTTAKKLRGGVVFVDEVPKGLTGKLDARKIREILIKAKKGGKIAV"}},
  "key": {"[1]": {"tested_on": "[ATP] in nerve terminals of neurons", "assay": "Presynaptic [ATP] at rest reported by Syn-ATP under metabolic inhibitors", "assay_type": "cell-based, rat", "details": "resting neurons, TTX to block action potential firing (FIG. 15)", "experimental": "All experiments were performed using dissociated primary hippocampal neurons according to procedures that have been previously described in Ryan T A. J. Neurosci 19:1317-1323 (1999). Briefly, hippocampi from newborn rats (P2-P4) were removed and dissected. Prior to cell dissociation, the dendate gyrus was removed leaving a relatively pure population of CA3 & CA1 excitatory neurons and interneurons. […] For fluorescence and luminescence experiments cover slips were mounted in a rapid switching low volume perfusion chamber equipped with stimulus electrodes and mounted on the stage of an inverted microscope equipped with EMCCD detection and laser-based wide-field illumination. Chemiluminescence was imaged using the same apparatus as the fluorescence, however no excitation source was used during the detection of light.\nOn DIV 14-25, neurons were mounted in a custom-built physiological perfusion chamber with temperature control that allows direct control of field stimulation to drive action potential firing. […] Luminescence and fluorescence imaging were performed using an EM-CCD Andor Ixon, thinned back-illuminated sensor through a 1.3 NA 40× fluar objective. Neurons expressing Syn-ATP were perfused with 20 mM luciferin, one minute prior to and throughout the period during which the luminescence images was obtained. […]"}, "[2]": {"details": "maximal number of photons emitted; cited from earlier work"}},
  "data": [
    {"molecule": "O=CC[C@@H](O)[C@H](O)[C@H](O)CO", "note": "[2-deoxyglucose]", "values": [
      {"measurement": "change of [ATP] at rest", "setting": "[1]", "value": "decreases"}
    ]},
    {"molecule": "CC[C@H]1/C=C/C=C/C[C@@H](C)[C@H](O)[C@@](C)(O)C(=O)[C@@H](C)[C@H](O)[C@@H](C)C(=O)[C@@H](C)[C@H](O)[C@@H](C)/C=C/C(=O)O[C@@H]2[C@H](C)[C@H](CC1)O[C@]1(CC[C@H](C)[C@H](C[C@@H](C)O)O1)[C@H]2C", "note": "[oligomycin]", "values": [
      {"measurement": "change of [ATP] at rest", "setting": "[1]", "value": "does not change"}
    ]},
    {"molecule": "B1", "values": [
      {"measurement": "kcat", "setting": "[2]", "value": "approximately 1.6 per sec"}
    ]}
  ]
}
